The term IC50 denotes the concentration that gives 50% inhibition.

The record followed here is patent publication US10494332B2, “Protein tyrosine phosphatases or SHP2 inhibitors and uses thereof” (Indiana University Research and Technology Corporation, priority 2015, dated 2019).

Values joined by “and” are separate entries in the source; they are usually repeats but may differ in a detail not shown here. Equal entries are not always repeated. Where two headings read alike, the source gives them in different places. Some results are limits rather than exact numbers.

One assay deals with PTPμ (Homo sapiens, UniProt P28827). Description: PTP inhibition assay (pNPP).
The next assay deals with T1, HePTP (Homo sapiens, UniProt P35236).
T1 sequence (P35236 1-360): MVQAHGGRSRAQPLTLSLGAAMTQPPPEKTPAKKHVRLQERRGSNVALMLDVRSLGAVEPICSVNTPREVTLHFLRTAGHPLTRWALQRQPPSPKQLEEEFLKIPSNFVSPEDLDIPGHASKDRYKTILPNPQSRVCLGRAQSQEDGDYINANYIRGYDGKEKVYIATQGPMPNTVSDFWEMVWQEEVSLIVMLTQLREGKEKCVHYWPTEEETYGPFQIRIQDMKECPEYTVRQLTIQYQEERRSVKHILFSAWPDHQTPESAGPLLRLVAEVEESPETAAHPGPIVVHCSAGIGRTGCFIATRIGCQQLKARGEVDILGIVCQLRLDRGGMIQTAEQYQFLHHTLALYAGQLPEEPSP
Description: PTP inhibition assay (pNPP). In kind it is biochemical. As to conditions: pNPP at Km, pH 7.0, 25° C.

The target in the next assay is T2, VHX (Homo sapiens, UniProt Q9NRW4).
T2 sequence (Q9NRW4 1-184): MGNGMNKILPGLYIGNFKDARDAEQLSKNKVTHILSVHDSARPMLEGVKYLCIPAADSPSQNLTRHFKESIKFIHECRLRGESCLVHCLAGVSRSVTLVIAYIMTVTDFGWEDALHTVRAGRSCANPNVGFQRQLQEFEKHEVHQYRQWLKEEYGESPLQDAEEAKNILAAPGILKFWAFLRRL
The assay can be described thus: PTP inhibition assay (pNPP). It counts as biochemical. Conditions: pNPP at Km, pH 7.0, 25° C.

Another assay concerns the target T3, LMWPTP (Homo sapiens, UniProt P24666).
T3 sequence (P24666 1-158): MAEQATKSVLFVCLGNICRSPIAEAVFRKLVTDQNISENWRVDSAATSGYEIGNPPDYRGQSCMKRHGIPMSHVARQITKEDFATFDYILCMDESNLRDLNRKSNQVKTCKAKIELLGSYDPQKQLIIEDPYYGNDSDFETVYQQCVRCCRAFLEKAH
The assay can be described thus: PTP inhibition assay (pNPP). It counts as biochemical.

A further assay deals with SHP1 (Homo sapiens, UniProt P29350). The assay can be described thus: PTP inhibition assay (pNPP). As to conditions: pNPP at Km, pH 7.0, 25° C. In kind it is biochemical.
The next assay deals with PTPα (Homo sapiens, UniProt P18433). The assay can be described thus: PTP inhibition assay (pNPP). It counts as biochemical.
For the next assay, the target named is T4, PP5 (Homo sapiens, UniProt P53041).
T4 sequence (P53041 1-499): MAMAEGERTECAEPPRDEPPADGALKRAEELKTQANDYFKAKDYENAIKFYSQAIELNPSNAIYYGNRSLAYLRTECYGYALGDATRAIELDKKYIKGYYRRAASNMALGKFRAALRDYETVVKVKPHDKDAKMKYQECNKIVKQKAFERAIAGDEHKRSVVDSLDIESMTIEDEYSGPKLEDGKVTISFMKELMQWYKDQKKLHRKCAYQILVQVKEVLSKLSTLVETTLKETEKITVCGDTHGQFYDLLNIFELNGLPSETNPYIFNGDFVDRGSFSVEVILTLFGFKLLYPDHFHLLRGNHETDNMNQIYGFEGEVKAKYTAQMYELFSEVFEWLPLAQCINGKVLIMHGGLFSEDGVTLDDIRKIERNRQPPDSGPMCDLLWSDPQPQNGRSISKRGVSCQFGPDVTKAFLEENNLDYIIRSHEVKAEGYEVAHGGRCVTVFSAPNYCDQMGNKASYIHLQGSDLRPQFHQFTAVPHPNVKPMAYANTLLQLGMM
Description: Phosphatase inhibition assay (pNPP).

In the next assay the target is T5, mPTPB (Mycobacterium tuberculosis, UniProt I6WXK4).
T5 sequence (I6WXK4 1-276): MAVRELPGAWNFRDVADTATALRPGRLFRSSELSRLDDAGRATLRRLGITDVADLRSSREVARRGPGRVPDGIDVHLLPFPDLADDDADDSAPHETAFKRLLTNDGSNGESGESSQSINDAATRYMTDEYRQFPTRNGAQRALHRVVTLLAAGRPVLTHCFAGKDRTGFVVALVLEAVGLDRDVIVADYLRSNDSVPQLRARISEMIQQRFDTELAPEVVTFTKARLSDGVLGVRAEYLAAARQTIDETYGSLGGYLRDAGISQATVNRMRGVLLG
The assay can be described thus: biochemical.

A further assay has as its target PTPε (Homo sapiens, UniProt P23469). The assay can be described thus: PTP inhibition assay (pNPP). It counts as biochemical.
The next assay has as its target T6, CDC14A (Homo sapiens, UniProt Q9UNH5).
T6 sequence (Q9UNH5 1-594): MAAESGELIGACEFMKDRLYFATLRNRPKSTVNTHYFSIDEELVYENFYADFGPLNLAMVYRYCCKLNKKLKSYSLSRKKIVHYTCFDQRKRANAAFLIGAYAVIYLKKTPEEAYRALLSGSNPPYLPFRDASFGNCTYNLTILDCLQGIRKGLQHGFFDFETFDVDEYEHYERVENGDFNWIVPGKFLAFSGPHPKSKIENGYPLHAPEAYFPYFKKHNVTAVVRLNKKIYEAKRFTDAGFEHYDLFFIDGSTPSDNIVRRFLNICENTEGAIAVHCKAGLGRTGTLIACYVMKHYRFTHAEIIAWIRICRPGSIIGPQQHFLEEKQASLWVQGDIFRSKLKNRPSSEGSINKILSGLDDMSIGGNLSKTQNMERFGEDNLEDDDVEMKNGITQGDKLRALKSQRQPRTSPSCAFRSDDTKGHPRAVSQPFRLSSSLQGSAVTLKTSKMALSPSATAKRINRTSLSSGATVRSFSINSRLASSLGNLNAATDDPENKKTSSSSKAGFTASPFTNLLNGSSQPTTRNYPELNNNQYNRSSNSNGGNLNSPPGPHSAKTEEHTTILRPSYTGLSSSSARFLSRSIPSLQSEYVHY
Description: PTP inhibition assay (pNPP). It counts as biochemical.

Another assay concerns the target PTPβ (Homo sapiens, UniProt P23467). The assay can be described thus: PTP inhibition assay (pNPP). It counts as biochemical.
Where [1] appears, read: read-out: IC50 VHX (second VHX line of Table 15).
The mark [2] stands for this setting: Biochemical potency against target (Ic50, nM) mPTPB.

Chain of PTPμ (P28827 21-1452): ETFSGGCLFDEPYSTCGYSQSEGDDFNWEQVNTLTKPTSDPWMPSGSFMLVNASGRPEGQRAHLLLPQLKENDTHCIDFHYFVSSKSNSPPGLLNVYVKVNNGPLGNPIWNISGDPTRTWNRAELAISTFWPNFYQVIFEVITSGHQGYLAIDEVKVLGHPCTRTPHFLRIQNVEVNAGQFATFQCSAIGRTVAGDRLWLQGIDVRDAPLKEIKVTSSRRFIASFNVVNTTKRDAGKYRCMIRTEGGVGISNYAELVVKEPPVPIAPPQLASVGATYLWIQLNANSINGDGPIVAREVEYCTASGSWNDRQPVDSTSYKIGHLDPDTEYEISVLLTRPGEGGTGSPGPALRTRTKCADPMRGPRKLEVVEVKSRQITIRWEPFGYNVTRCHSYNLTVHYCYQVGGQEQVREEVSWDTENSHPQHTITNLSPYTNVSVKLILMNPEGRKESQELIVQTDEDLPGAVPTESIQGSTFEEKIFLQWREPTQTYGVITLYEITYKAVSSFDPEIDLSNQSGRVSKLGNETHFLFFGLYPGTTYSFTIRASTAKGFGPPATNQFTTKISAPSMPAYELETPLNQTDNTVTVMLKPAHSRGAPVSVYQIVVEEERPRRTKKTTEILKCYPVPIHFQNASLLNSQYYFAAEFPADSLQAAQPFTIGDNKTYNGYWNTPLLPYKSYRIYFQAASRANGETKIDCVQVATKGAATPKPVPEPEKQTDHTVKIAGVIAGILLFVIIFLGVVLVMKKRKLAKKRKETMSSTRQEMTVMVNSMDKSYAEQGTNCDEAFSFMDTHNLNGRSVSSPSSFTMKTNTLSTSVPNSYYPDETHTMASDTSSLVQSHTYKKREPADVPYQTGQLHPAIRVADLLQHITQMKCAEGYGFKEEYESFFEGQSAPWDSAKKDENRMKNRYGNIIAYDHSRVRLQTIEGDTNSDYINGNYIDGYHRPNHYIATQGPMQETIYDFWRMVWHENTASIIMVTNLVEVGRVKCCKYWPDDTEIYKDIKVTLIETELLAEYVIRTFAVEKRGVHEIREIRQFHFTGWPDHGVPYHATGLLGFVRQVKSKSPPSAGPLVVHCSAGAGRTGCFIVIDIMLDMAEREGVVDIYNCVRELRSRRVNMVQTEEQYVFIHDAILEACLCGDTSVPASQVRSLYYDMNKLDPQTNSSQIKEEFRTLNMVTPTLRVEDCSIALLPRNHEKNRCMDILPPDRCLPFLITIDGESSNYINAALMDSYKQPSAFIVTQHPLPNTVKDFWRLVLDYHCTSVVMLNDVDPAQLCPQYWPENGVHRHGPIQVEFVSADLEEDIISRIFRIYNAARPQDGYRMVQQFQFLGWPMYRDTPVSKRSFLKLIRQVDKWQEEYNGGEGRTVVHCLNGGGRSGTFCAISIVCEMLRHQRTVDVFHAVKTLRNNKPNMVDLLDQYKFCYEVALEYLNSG
Chain of SHP1 (P29350 whole entry): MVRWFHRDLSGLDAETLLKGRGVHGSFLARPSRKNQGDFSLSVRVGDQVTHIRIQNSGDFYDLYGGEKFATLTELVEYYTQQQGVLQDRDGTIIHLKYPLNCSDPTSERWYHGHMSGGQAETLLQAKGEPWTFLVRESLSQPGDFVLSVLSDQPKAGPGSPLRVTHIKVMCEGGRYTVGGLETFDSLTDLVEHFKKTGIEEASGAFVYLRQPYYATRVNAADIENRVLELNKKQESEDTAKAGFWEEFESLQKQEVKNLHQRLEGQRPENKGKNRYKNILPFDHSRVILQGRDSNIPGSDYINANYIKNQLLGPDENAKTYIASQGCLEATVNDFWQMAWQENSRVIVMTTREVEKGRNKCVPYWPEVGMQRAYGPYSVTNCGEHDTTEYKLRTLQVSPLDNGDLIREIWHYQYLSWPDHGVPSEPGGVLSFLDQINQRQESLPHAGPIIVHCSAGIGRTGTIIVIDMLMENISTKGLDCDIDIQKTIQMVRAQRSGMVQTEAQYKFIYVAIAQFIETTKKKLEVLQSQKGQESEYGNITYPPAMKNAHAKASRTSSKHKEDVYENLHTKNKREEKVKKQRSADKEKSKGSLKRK
Chain of PTPβ (P23467 23-1997): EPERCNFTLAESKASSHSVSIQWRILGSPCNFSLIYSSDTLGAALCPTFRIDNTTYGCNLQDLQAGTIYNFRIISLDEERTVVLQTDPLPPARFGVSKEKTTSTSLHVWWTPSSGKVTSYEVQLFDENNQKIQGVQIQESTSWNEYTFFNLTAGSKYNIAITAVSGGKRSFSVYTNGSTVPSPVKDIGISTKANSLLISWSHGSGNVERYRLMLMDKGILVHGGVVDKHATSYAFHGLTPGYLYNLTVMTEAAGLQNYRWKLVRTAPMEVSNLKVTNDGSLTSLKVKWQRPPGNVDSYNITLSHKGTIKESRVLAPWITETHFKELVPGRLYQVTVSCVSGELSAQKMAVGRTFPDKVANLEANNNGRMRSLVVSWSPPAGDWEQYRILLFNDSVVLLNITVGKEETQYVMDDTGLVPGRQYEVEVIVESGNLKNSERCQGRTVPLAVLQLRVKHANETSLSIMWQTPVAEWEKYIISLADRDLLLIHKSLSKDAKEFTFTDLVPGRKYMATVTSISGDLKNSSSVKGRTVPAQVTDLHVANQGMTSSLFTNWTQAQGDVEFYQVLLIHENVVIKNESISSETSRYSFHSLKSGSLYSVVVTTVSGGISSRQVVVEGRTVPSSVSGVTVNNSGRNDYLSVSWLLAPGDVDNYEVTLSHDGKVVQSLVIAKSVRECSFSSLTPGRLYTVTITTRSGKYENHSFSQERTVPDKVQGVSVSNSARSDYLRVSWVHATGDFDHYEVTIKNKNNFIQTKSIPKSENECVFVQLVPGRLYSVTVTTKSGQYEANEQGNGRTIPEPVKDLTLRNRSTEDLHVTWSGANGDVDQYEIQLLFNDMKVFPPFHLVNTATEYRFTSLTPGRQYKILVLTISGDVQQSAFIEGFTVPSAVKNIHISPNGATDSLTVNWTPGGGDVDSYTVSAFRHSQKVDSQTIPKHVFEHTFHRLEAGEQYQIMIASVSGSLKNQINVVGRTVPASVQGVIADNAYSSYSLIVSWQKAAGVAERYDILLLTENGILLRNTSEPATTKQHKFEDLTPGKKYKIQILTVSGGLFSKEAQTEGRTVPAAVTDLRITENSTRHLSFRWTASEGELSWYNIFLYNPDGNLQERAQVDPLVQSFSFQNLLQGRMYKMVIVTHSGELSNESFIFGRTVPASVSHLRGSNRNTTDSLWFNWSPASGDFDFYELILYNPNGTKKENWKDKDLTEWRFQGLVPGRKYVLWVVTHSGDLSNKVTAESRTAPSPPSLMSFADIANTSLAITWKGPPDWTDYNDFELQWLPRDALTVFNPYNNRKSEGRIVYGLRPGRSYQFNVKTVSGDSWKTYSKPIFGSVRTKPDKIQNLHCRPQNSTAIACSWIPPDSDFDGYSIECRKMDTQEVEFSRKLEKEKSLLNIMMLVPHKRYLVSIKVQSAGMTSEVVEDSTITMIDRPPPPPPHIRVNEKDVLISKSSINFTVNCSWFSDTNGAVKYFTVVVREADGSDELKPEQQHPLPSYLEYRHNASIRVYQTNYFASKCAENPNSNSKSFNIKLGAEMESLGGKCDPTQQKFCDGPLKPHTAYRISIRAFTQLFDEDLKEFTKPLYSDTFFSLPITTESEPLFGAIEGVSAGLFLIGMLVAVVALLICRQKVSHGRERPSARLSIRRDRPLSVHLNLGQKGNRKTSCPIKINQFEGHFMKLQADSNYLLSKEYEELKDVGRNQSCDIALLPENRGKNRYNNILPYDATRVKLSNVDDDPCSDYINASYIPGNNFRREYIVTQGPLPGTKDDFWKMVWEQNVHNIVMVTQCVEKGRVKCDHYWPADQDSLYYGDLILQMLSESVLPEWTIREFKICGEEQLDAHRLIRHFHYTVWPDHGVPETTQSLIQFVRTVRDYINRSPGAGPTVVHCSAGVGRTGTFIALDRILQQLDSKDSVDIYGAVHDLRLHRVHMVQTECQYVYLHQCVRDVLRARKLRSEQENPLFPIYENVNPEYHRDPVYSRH
Chain of PTPα (P18433 20-802): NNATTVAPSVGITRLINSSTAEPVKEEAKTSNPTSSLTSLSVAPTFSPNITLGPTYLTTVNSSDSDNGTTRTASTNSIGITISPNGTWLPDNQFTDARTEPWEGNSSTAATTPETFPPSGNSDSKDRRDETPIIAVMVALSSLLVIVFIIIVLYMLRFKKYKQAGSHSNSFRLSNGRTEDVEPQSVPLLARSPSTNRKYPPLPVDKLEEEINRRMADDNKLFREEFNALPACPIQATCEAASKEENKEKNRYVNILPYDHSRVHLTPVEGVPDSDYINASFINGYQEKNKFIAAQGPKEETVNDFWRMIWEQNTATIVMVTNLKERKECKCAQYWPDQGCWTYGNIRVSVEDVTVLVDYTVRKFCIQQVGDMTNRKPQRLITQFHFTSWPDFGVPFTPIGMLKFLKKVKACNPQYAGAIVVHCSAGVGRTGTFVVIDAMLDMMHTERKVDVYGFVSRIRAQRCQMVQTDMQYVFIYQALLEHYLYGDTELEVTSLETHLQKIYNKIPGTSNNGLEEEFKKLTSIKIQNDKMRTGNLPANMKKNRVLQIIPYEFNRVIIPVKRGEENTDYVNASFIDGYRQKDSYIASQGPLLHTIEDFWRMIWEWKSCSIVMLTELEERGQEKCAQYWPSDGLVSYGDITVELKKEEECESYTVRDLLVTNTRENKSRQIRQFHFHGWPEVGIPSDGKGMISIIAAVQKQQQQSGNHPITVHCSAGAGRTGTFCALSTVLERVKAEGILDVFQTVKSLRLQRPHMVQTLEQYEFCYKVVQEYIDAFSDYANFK

Regarding `O=C(Nc1cnc2ccccc2c1)C(c1ccccc1)S(=O)(=O)O` (centres unmarked) [Compound L319M88], the concentration for half-maximal inhibition (IC50) against PTPμ was greater than 200 µM; against HePTP it was greater than 200 µM; at VHX (read-out: IC50 VHX), greater than 200 µM; on VHX (setting [1]), greater than 200 µM; on LMWPTP (pH 7), 7.3 µM; at LMWPTP (pNPP at Km, pH 7.0, 25° C.), 6.1 µM. Moreover, the concentration for half-maximal inhibition (IC50) at SHP1 is greater than 200 µM; on PTPα, greater than 200 µM; at PP5 it was greater than 200 µM; against mPTPB (IC50 mPTPB), 282 nM; at PTPε, greater than 200 µM; at CDC14A, greater than 200 µM. Besides, the IC50 at PTPβ is greater than 200 µM.
With `O=C(Nc1nc2ccccc2s1)C(c1ccccc1)S(=O)(=O)O` (centres unmarked) [Compound L319N15], the 50% inhibitory concentration (IC50) against PTPμ is greater than 200 µM; on HePTP it was 50 µM; on VHX (read-out: IC50 VHX) it was greater than 200 µM; at VHX (setting [1]), greater than 200 µM; against LMWPTP (pH 7), 7.1 µM; on LMWPTP (pNPP at Km, pH 7.0, 25° C.) it was 7.33 µM and 8.6 µM. Also, the IC50 on SHP1 is > 200 µM and 59.6 µM; against PTPα, greater than 200 µM; against PP5 it was greater than 200 µM; against mPTPB (IC50 mPTPB) it was 116 nM; against PTPε, greater than 200 µM; against CDC14A, greater than 200 µM. The compound further had an IC50 against PTPβ greater than 200 µM.
On to `O=C(C(c1ccccc1)S(=O)(=O)O)N1CCC(Cc2ccccc2)CC1` (centres unmarked) [Compound L319N46], for which the 50% inhibitory concentration (IC50) is greater than 200 µM against PTPμ; greater than 200 µM at HePTP; greater than 200 µM on VHX (read-out: IC50 VHX); greater than 200 µM against LMWPTP (pNPP at Km, pH 7.0, 25° C.); greater than 200 µM against SHP1; greater than 200 µM against PTPα. For the same compound, the half-inhibitory concentration (IC50) on PP5 was greater than 200 µM; on mPTPB (setting [2]), 60 nM; against PTPε, greater than 200 µM; against CDC14A it was greater than 200 µM; on PTPβ, greater than 200 µM.
For the compound `O=C(C(c1ccccc1)S(=O)(=O)O)N1CCC(c2ccc(Cl)c(Cl)c2)CC1` (centres unmarked) [Compound L319N47], the half-inhibitory concentration (IC50) is greater than 200 µM on PTPμ; 77 µM at HePTP; 150 µM on VHX (read-out: IC50 VHX); 115 µM on LMWPTP (pNPP at Km, pH 7.0, 25° C.); 66 µM against SHP1; greater than 200 µM on PTPα. The IC50 against PP5 is greater than 200 µM; on mPTPB (setting [2]), 9 nM; against PTPε, greater than 200 µM; at CDC14A, greater than 200 µM; at PTPβ it was 50 µM.
`O=C(C(c1ccccc1)S(=O)(=O)O)N1CCCC2CCCCC21` (centres unmarked) [Compound L319N53]: the IC50 on PTPμ was greater than 200 µM; against HePTP, greater than 200 µM; on VHX (read-out: IC50 VHX), greater than 200 µM; at LMWPTP (pNPP at Km, pH 7.0, 25° C.), greater than 200 µM; at SHP1, greater than 200 µM; on PTPα, greater than 200 µM. The IC50 against PP5 is greater than 200 µM; at mPTPB (setting [2]), 20 nM; on PTPε it was greater than 200 µM; against CDC14A it was greater than 200 µM; at PTPβ, greater than 200 µM.
For the compound `O=C(CS(=O)(=O)O)Nc1nc2ccccc2s1` [Compound L335N15], the IC50 against PTPμ was greater than 100 µM; on HePTP, greater than 100 µM; on VHX (read-out: IC50 VHX), greater than 100 µM; on VHX (setting [1]), greater than 100 µM; on LMWPTP (pNPP at Km, pH 7.0, 25° C.), 2.1 µM; on SHP1, greater than 100 µM. Also, the IC50 at PTPα was greater than 100 µM; against PP5, greater than 100 µM; at mPTPB (IC50 mPTPB) it was 9500 nM; against PTPε, greater than 100 µM; against CDC14A, greater than 100 µM; against PTPβ, greater than 100 µM.
